Data as given in the NIST ThermoML archive (doi:10.1016/j.jct.2016.03.026).
Several values for one entry are separate records, joined by “and”; a condition that tells them apart may be missing. Identical values can stand only once.

Experiment: xn = mol fraction of the nth substance listed
Conditions: Fluid (supercritical or subcritical phases); for speed of sound: Frequency=5 MHz, Pulse-echo method, x1 = 0.925; for mass density: 263.15 K, Vibrating tube method, x1 = 0.97

O=C=O [carbon dioxide] + CO
speed of sound
Conditions	263.13 K	263.14 K
7970 kPa	694.6 m/s and 693.1 m/s	694.8 m/s and 695.2 m/s
9960 kPa	–	715.4 m/s
9990 kPa	715.1 m/s	–
10000 kPa	714.3 m/s	–
10020 kPa	–	715.9 m/s
14940 kPa	760.5 m/s	–
14950 kPa	–	760.8 m/s
14960 kPa	759.3 m/s	–
14990 kPa	–	761 m/s
19990 kPa	799.6 m/s	801 m/s
20000 kPa	800.7 m/s	–
20020 kPa	–	800.7 m/s
24970 kPa	836 m/s	836.4 m/s
24980 kPa	835.1 m/s	–
24990 kPa	–	836.3 m/s
29960 kPa	867.4 m/s	868.8 m/s
29990 kPa	868.4 m/s	–
30000 kPa	–	868.9 m/s
34950 kPa	–	898.5 m/s
34980 kPa	–	898.5 m/s
34990 kPa	898.5 m/s	–
35000 kPa	897.7 m/s	–
39950 kPa	926.1 m/s	–
39970 kPa	925.5 m/s	–
39990 kPa	–	926.5 m/s and 926.8 m/s
44970 kPa	952.1 m/s	–
44980 kPa	951.6 m/s	–
45030 kPa	–	952.7 m/s
45040 kPa	–	952.8 m/s
49950 kPa	–	977.1 m/s
49960 kPa	–	977.1 m/s
49970 kPa	977 m/s and 976.2 m/s	–
54950 kPa	999.5 m/s	–
54980 kPa	–	1000.5 m/s
54990 kPa	1000.3 m/s	–
55010 kPa	–	1000.5 m/s
59950 kPa	1021.6 m/s	1022.5 m/s
59970 kPa	–	1022.9 m/s
59990 kPa	1022.6 m/s	–
64970 kPa	–	1043.9 m/s and 1044.2 m/s
64980 kPa	1043.7 m/s	–
65000 kPa	1043 m/s	–
69950 kPa	–	1064.3 m/s
69960 kPa	1063.9 m/s	–
69990 kPa	–	1064.1 m/s
70000 kPa	1063.4 m/s	–
74960 kPa	1083.5 m/s and 1082.7 m/s	–
74970 kPa	–	1083.7 m/s
74990 kPa	–	1084.1 m/s
79980 kPa	1101.6 m/s	–
79990 kPa	–	1102.8 m/s
80000 kPa	1102.6 m/s	1102.8 m/s
89950 kPa	–	1138.4 m/s
89990 kPa	1137.3 m/s	–
90000 kPa	1138.2 m/s	–
90020 kPa	–	1138.8 m/s
99980 kPa	–	1172.1 m/s
99990 kPa	1171.5 m/s	–
100000 kPa	1170.8 m/s	1171.8 m/s
109970 kPa	1202.4 m/s	–
109980 kPa	1203.2 m/s	1203.3 m/s
110000 kPa	–	1203.8 m/s
119950 kPa	1232.3 m/s	–
119980 kPa	1233.2 m/s	1233.5 m/s
120000 kPa	–	1233.4 m/s
129980 kPa	1261.7 m/s	–
129990 kPa	1260.9 m/s	–
130000 kPa	–	1262 m/s
130010 kPa	–	1262.1 m/s
139970 kPa	1288.8 m/s	–
139980 kPa	1288.1 m/s	1289.1 m/s
140010 kPa	–	1289.5 m/s
149950 kPa	1315 m/s	1315.1 m/s
149970 kPa	1314.1 m/s	–
150000 kPa	–	1315.4 m/s
159950 kPa	–	1340.4 m/s
159960 kPa	–	1340.2 m/s
159970 kPa	1340 m/s	–
159980 kPa	1339.2 m/s	–
169960 kPa	–	1364.5 m/s
169980 kPa	–	1364.2 m/s
170010 kPa	1364.1 m/s	–
170040 kPa	1363.4 m/s	–
179970 kPa	–	1388 m/s
179990 kPa	–	1387.5 m/s
180000 kPa	1386.5 m/s	–
180020 kPa	1387.5 m/s	–
190000 kPa	1409.9 m/s	1410.3 m/s
190010 kPa	1409 m/s	–
190020 kPa	–	1409.9 m/s

Conditions	mass density [kg/m3]
4000 kPa	989.7
4025 kPa	990.23
4050 kPa	990.17
4075 kPa	990.12
4100 kPa	990.09
4125 kPa	990.27
4150 kPa	990.42
4175 kPa	990.57
4200 kPa	990.66
4225 kPa	990.83
4250 kPa	990.91
4275 kPa	991.06
4300 kPa	991.18
4325 kPa	991.32
4350 kPa	991.48
4375 kPa	991.65
4400 kPa	991.73
4425 kPa	991.89
4450 kPa	992.03
4475 kPa	992.14
4500 kPa	992.26
4525 kPa	992.39
4550 kPa	992.55
4575 kPa	992.63
4600 kPa	992.8
4625 kPa	992.88
4650 kPa	993.04
4675 kPa	993.21
4700 kPa	993.29
4725 kPa	993.45
4750 kPa	993.53
4775 kPa	993.7
4800 kPa	993.78
4825 kPa	993.94
4850 kPa	994.11
4875 kPa	994.19
4900 kPa	994.35
4925 kPa	994.43
4950 kPa	994.6
4975 kPa	994.76
5000 kPa	994.84
5025 kPa	995.01
5050 kPa	995.09
5075 kPa	995.25
5100 kPa	995.34
5125 kPa	995.5
5150 kPa	995.58
5175 kPa	995.74
5200 kPa	995.91
5225 kPa	995.99
5250 kPa	996.15
5275 kPa	996.24
5300 kPa	996.4
5325 kPa	996.48
5350 kPa	996.65
5375 kPa	996.73
5400 kPa	996.89
5425 kPa	996.97
5450 kPa	997.14
5475 kPa	997.22
5500 kPa	997.38
5525 kPa	997.46
5550 kPa	997.63
5575 kPa	997.71
5600 kPa	997.87
5625 kPa	997.96
5650 kPa	998.12
5675 kPa	998.2
5700 kPa	998.37
5725 kPa	998.52
5750 kPa	998.61
5775 kPa	998.69
5800 kPa	998.86
5825 kPa	998.94
5850 kPa	999.1
5875 kPa	999.18
5900 kPa	999.35
5925 kPa	999.43
5950 kPa	999.59
5975 kPa	999.68
6000 kPa	999.84
6025 kPa	999.92
6050 kPa	1000.09
6075 kPa	1000.17
6100 kPa	1000.33
6125 kPa	1000.41
6150 kPa	1000.58
6175 kPa	1000.66
6200 kPa	1000.79
6225 kPa	1000.9
6250 kPa	1000.98
6275 kPa	1001.15
6300 kPa	1001.23
6325 kPa	1001.39
6350 kPa	1001.48
6375 kPa	1001.64
6400 kPa	1001.72
6425 kPa	1001.82
6450 kPa	1001.97
6475 kPa	1002.05
6500 kPa	1002.21
6525 kPa	1002.29
6550 kPa	1002.46
6575 kPa	1002.54
6600 kPa	1002.7
6625 kPa	1002.79
6650 kPa	1002.95
6675 kPa	1003.03
6700 kPa	1003.2
6725 kPa	1003.28
6750 kPa	1003.36
6775 kPa	1003.52
6800 kPa	1003.6
6825 kPa	1003.77
6850 kPa	1003.85
6875 kPa	1004.01
6900 kPa	1004.09
6925 kPa	1004.25
6950 kPa	1004.34
6975 kPa	1004.42
7000 kPa	1004.59
7025 kPa	1004.67
7050 kPa	1004.82
7075 kPa	1004.91
7100 kPa	1004.99
7125 kPa	1005.16
7150 kPa	1005.24
7175 kPa	1005.38
7200 kPa	1005.49
7225 kPa	1005.57
7250 kPa	1005.73
7275 kPa	1005.81
7300 kPa	1005.9
7325 kPa	1006.06
7350 kPa	1006.14
7375 kPa	1006.29
7400 kPa	1006.39
7425 kPa	1006.47
7450 kPa	1006.63
7475 kPa	1006.71
7500 kPa	1006.79
